Test results from patent US8822447B2, “Indazole compounds useful as ketohexokinase inhibitors” (Janssen Pharmaceutica NV, priority 2010, dated 2014).
Counter-ions that a name gives are not always drawn.

biological target: KHK (Homo sapiens (Human), UniProt P50053); assay: In Vitro KHK Enzyme Assay (HTMS); type: biochemical; conditions: 200 μM fructose, 100 μM ATP, 2 nM KHK, 60 min at 25° C.; Fructose-1-P detected by high throughput mass spectrometry;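 also: primary screen measuring inhibition of KHK-catalysed conversion of D-fructose into fructose 1-phosphate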
Sequence (P50053 whole entry): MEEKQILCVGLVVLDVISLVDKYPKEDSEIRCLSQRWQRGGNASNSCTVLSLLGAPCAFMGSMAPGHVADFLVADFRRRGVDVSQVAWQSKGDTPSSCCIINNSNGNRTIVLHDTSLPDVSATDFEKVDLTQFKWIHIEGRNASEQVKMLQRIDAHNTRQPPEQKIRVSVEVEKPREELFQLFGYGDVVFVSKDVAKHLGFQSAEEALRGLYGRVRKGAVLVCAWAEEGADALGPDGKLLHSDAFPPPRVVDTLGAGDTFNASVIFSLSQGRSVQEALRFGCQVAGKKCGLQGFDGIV

| Compound | IC50 [µM] |
| --- | --- |
| CSc1nn(-c2ccc(N)cc2)c2cc(C3=CCNCC3)ccc12 [Compound 116, 4-[3-Methylsulfanyl-6-(1,2,3,6-tetrahydro-pyridin-4-yl)-indazol-1-yl]-phenylamine] | 0.16 |
| CSc1nn(-c2ccccc2)c2cc(C=Cc3ccccn3)ccc12 [Compound 155, 3-Methylsulfanyl-1-phenyl-6-(2-pyridin-2-yl-vinyl)-1H-indazole] | > 10 |
| CSc1nn(-c2ccccc2)c2cc(N3CCN(C(=O)c4cccnc4)CC3)ccc12 [Compound 31, (4-(3-(Methylthio)-1-phenyl-1H-indazol-6-yl)piperazin-1-yl)(pyridin-3-yl)methanone] | 4.95 |
| Cc1nn(-c2ccccc2)c2nc(C3CCN(C(=O)C4CCNCC4)CC3)nc(O)c12 [Compound 87, [4-(4-Hydroxy-3-methyl-1-phenyl-1H-pyrazolo[3,4-d]pyrimidin-6-yl)-piperidin-1-yl]-piperidin-4-yl-methanone hydrochloride] | > 30 |
| CCc1nn(-c2ccccc2)c2cc(N3CCN(C4CCNC4)C3=O)ccc12 (stereo not shown) [Compound 48, 1-(3-Ethyl-1-phenyl-1H-indazol-6-yl)-3-(pyrrolidin-3-yl)imidazolidin-2-one hydrochloride] | 2.37 |
| CSc1nn(-c2ccccc2)c2cc(NCCC3CCNCC3)ccc12 [Compound 166, (3-Methylsulfanyl-1-phenyl-1H-indazol-6-yl)-(2-piperidin-4-yl-ethyl)-amine] | 0.6 |
| CCc1nn(-c2ccccc2)c2cc(-c3ccc(N4CCNCC4)cc3)ccc12 [Compound 52, 3-Ethyl-1-phenyl-6-(4-(piperazin-1-yl)phenyl)-1H-indazole hydrochloride] | 9.8 |
| CCc1nn(-c2ccccc2)c2cc(N3CCN(CC)CC3)ccc12 [Compound 55, 3-Ethyl-6-(4-ethylpiperazin-1-yl)-1-phenyl-1H-indazole] | 11.5 |
| CSc1nn(-c2ccccc2)c2cc(C(=O)C3CCNCC3)ccc12 [Compound 142, (3-Methylsulfanyl-1-phenyl-1H-indazol-6-yl)-piperidin-4-yl-methanone] | 0.67 |
| CSc1nn(-c2ccccc2)c2cc(C(=O)CC3CCNCC3)ccc12 [Compound 160, 1-(3-Methylsulfanyl-1-phenyl-1H-indazol-6-yl)-2-piperidin-4-yl-ethanone] | 1 |
| Cc1nn(-c2ccccc2)c2cc(NC(=O)c3ccc4[nH]cnc4c3)ccc12 [Compound 66, N-(3-methyl-1-phenyl-1H-indazol-6-yl)-1H-benzo[d]imidazole-5-carboxamide] | 0.16 |
| CSc1nn(-c2ccccc2)c2cc(NCCN3CCNCC3)ccc12 [Compound 165, (3-Methylsulfanyl-1-phenyl-1H-indazol-6-yl)-(2-piperazin-1-yl-ethyl)-amine] | 0.89 |
| CCc1nn(-c2ccccc2)c2cc(NC(=O)c3cccc(C(=N)N)c3)ccc12 [Compound 40, 3-Carbamimidoyl-N-(3-ethyl-1-phenyl-1H-indazol-6-yl)benzamide acetate] | 0.68 |
| Cc1nn(-c2ccccc2)c2nc(C3CCNCC3)nc(O)c12 [Compound 86, 3-Methyl-1-phenyl-6-piperidin-4-yl-1H-pyrazolo[3,4-d]pyrimidin-4-ol hydrochloride] | 6.1 |
| CSc1nn(-c2ccccc2)c2cc(N3CCN(c4ccccn4)CC3)ccc12 [Compound 24, 3-(Methylthio)-1-phenyl-6-(4-(pyridin-2-yl)piperazin-1-yl)-1H-indazole] | 1.56 |
| CCc1nn(-c2ccccc2)c2cc(N3CCNCC3)ccc12 [Compound 42, 3-Ethyl-1-phenyl-6-(piperazin-1-yl)-1H-indazole] | 0.57 |
| CSc1nn(-c2ccccc2)c2cc(C=Cn3cncn3)ccc12 [Compound 152, 3-Methylsulfanyl-1-phenyl-6-(2-[1,2,4]triazol-1-yl-vinyl)-1H-indazole] | > 10 |
| CCc1nn(-c2ccccc2)c2nc(C3CCN(c4ccncc4)CC3)nc(O)c12 [Compound 92, 3-Ethyl-1-phenyl-6-(3,4,5,6-tetrahydro-2H-[1,4′]bipyridinyl-4-yl)-1H-pyrazolo[3,4-d]pyrimidin-4-ol] | 1.67 |
| Cc1nn(-c2ccccc2)c2cc(N3CCN(C4CNC4)CC3)ccc12 [Compound 62, 6-(4-(Azetidin-3-yl)piperazin-1-yl)-3-methyl-1-phenyl-1H-indazole hydrochloride] | 1.6 |
| CCc1nn(-c2ccccc2)c2nc(-c3ccc(NC4CCNCC4)cc3)cc(O)c12 [Compound 100, 3-Ethyl-1-phenyl-6-[4-(piperidin-4-ylamino)-phenyl]-1H-pyrazolo[3,4-b]pyridin-4-ol] | 1.72 |
| Cc1nn(-c2ccccc2)c2cc(N3CCN(C4CCNCC4)C3=O)ccc12 [Compound 67, 1-(3-Methyl-1-phenyl-1H-indazol-6-yl)-3-(piperidin-4-yl)imidazolidin-2-one hydrochloride] | 1.23 |
| CSc1nn(-c2ccccc2)c2cc(NC(=O)C3CCCNC3)ccc12 (stereo not shown) [Compound 12, N-(3-(Methylthio)-1-phenyl-1H-indazol-6-yl)piperidine-3-carboxamide hydrochloride] | 0.31 |

| Compound | IC50 [µM] |
| --- | --- |
| CSc1nn(-c2ccccc2)c2cc(N3CCN(CC4CCCNC4)C3=O)ccc12 (stereo not shown) [Compound 28, 1-(3-(Methylthio)-1-phenyl-1H-indazol-6-yl)-3-(piperidin-3-ylmethyl)imidazolidin-2-one hydrochloride] | 3.04 |
| COc1nn(-c2ccccc2)c2cc(N3CCN(C4CCNCC4)CC3)ccc12 [Compound 76, 3-Methoxy-1-phenyl-6-(4-(piperidin-4-yl)piperazin-1-yl)-1H-indazole hydrochloride] | 1.38 |
| CSc1nn(-c2ccccc2C)c2cc(C3=CCNCC3)ccc12 [Compound 180, 3-Methylsulfanyl-6-(1,2,3,6-tetrahydro-pyridin-4-yl)-1-o-tolyl-1H-indazole] | > 10 |
| CSc1nn(-c2cccc(F)c2)c2cc(C3=CCNCC3)ccc12 [Compound 179, 1-(3-Fluoro-phenyl)-3-methylsulfanyl-6-(1,2,3,6-tetrahydro-pyridin-4-yl)-1H-indazole] | 0.04 |
| CCc1nn(-c2ccccc2)c2nc(C3CCN(C4CCNCC4)CC3)nc(O)c12 [Compound 95, 6-[1,4′]Bipiperidinyl-4-yl-3-ethyl-1-phenyl-1H-pyrazolo[3,4-d]pyrimidin-4-ol hydrochloride] | 11.5 |
| CSc1nn(-c2ccccc2)c2cc(-c3ccncc3)ccc12 [Compound 164, 3-Methylsulfanyl-1-phenyl-6-pyridin-4-yl-1H-indazole] | > 10 |
| CSc1nn(-c2ccccc2)c2cc(C=CC3CCCN3)ccc12 (stereo not shown) [Compound 175, 3-Methylsulfanyl-1-phenyl-6-(2-pyrrolidin-2-yl-vinyl)-1H-indazole] | 0.61 |
| COc1ccc(-n2nc(SC)c3ccc(N4CCNCC4)cc32)cc1 [Compound 122, 1-(4-Methoxy-phenyl)-3-methylsulfanyl-6-piperazin-1-yl-1H-indazole] | 0.83 |
| CSc1nn(-c2cccc(C)c2)c2cc(N3CCN(C4CCNCC4)CC3)ccc12 [Compound 119, 3-Methylsulfanyl-6-(4-piperidin-4-yl-piperazin-1-yl)-1-m-tolyl-1H-indazole] | 0.38 |
| CSc1nn(-c2ccc(F)cc2)c2cc(C3=CCNCC3)ccc12 [Compound 139, 1-(4-Fluoro-phenyl)-3-methylsulfanyl-6-(1,2,3,6-tetrahydro-pyridin-4-yl)-1H-indazole] | 0.23 |
| COc1nn(-c2ccccc2)c2cc(N3CCN(C4CCNCC4)C3=O)ccc12 [Compound 81, 1-(3-Methoxy-1-phenyl-1H-indazol-6-yl)-3-(piperidin-4-yl)imidazolidin-2-one hydrochloride] | 30 |
| CSc1nn(-c2ccccc2)c2cc(N3CCN(C4CCNCC4)C3=O)ccc12 [Compound 26, 1-(3-(Methylthio)-1-phenyl-1H-indazol-6-yl)-3-(piperidin-4-yl)imidazolidin-2-one hydrochloride] | 1.47 |
| CSc1nn(-c2ccccc2)c2cc(NC(=O)Cc3ccncc3)ccc12 [Compound 9, N-(3-(Methylthio)-1-phenyl-1H-indazol-6-yl)-2-(pyridin-4-yl)acetamide] | 2.68 |
| CSc1nn(-c2ccccc2)c2cc(N3CCN(C(=O)C4CCNCC4)CC3)ccc12 [Compound 34, (4-(3-(Methylthio)-1-phenyl-1H-indazol-6-yl)piperazin-1-yl)(piperidin-4-yl)methanone hydrochloride] | 0.83 |
| CCc1nn(-c2ccccc2)c2cc(OC3CN(C4CCNCC4)C3)ccc12 [Compound 41, 3-Ethyl-1-phenyl-6-(1-(piperidin-4-yl)azetidin-3-yloxy)-1H-indazole hydrochloride] | > 30 |
| COc1nn(-c2ccccc2)c2cc(N3CCN(C4CNC4)CC3)ccc12 [Compound 74, 6-(4-(Azetidin-3-yl)piperazin-1-yl)-3-methoxy-1-phenyl-1H-indazole hydrochloride] | 5.96 |
| Cc1nn(-c2ccccc2)c2cc(N3CCN(C4CCNCC4)CC3)ccc12 [Compound 64, 3-Methyl-1-phenyl-6-(4-(piperidin-4-yl)piperazin-1-yl)-1H-indazole hydrochloride] | 9.06 |
| CCOc1cc(-c2ccc(N3CC(C)NC(C)C3)cc2)nc2c1c(CC)nn2-c1ccccc1 (stereo not shown) [Compound 104, 6-[4-(3,5-Dimethyl-piperazin-1-yl)-phenyl]-4-ethoxy-3-ethyl-1-phenyl-1H-pyrazolo[3,4-b]pyridine] | 14.7 |
| CSc1nn(-c2cccc(C)c2)c2cc(N3CCNCC3)ccc12 [Compound 118, 3-Methylsulfanyl-6-piperazin-1-yl-1-m-tolyl-1H-indazole] | 4.12 |
| COc1nn(-c2ccccc2)c2cc(N3CC(N4CCNCC4)C3)ccc12 [Compound 73, 3-Methoxy-1-phenyl-6-(3-(piperazin-1-yl)azetidin-1-yl)-1H-indazole hydrochloride] | 0.39 |
| CSc1nn(-c2ccccc2)c2cc(OC3CCNCC3)ccc12 [Compound 121, 3-Methylsulfanyl-1-phenyl-6-(piperidin-4-yloxy)-1H-indazole] | 0.71 |
